Data: paper PMC10987503, “Biomimetic NIR-II fluorescent proteins created from chemogenic protein-seeking dyes for multicolor deep-tissue bioimaging” (Nature Communications, 2024)
Values belong to the compound of their own block, whether it stands above or below them.

Key:
[1] = molecular target: T1, human serum albumin (HSA) (Homo sapiens, UniProt P02768); test: BLI; also HRMS, SDS-PAGE and proteomics of the covalent adduct; assay type: binding
T1 construct: gene ALB; full HSA; recombinant domain III (DIII) also measured
T1 sequence (P02768 25-609): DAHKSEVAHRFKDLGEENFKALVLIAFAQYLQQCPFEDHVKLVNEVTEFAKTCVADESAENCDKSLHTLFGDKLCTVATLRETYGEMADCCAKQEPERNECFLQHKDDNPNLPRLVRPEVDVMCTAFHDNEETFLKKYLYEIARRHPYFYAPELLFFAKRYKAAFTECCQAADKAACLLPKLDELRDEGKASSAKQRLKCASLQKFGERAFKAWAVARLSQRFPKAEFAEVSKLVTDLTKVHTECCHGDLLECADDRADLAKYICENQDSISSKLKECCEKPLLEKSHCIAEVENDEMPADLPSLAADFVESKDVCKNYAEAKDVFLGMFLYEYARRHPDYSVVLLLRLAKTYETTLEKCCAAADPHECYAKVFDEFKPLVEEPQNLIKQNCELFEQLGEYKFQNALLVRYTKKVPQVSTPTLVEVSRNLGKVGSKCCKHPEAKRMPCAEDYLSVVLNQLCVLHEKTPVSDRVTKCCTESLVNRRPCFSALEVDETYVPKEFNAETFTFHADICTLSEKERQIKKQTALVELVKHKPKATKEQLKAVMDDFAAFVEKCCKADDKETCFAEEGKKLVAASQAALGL

[2] = molecular target: T1, human serum albumin (HSA); test: BLI; also HRMS ([…] covalent binding) and SDS-PAGE
[3] = molecular target: T1, human serum albumin (HSA); test: BLI; also HRMS ([…] covalent binding) and SDS-PAGE; remark: listed apart in the source

Kd [1]: ~2.13 nM
SMILES: O=C(O)CCCCCn1/c(=C/C=C2\CCCC(/C=C/C3=[N+](CCCCCC(=O)O)c4cccc5cccc3c45)=C2Cl)c2cccc3cccc1c32 [CO-1080]

Kd [2]: ~14.5 nM
SMILES: CCn1/c(=C/C=C2\CCCC(/C=C/C3=[N+](CC)c4cccc5cccc3c45)=C2Cl)c2cccc3cccc1c32 [Et-1080]

Kd [3]: ~82.6 nM
SMILES: O=S(=O)(O)CCCCn1/c(=C/C=C2\CCCC(/C=C/C3=[N+](CCCCS(=O)(=O)O)c4cccc5cccc3c45)=C2Cl)c2cccc3cccc1c32 [FD-1080]
